Results taken from the supplement of paper PMC10307832.

Key:
Test in all cases: relative viability (nuclei count vs DMSO), 5 days (fraction); higher = more cells survive
[1] = compound: CN(c1ncccc1CNc1nc(Nc2ccc3c(c2)CC(=O)N3)ncc1C(F)(F)F)S(C)(=O)=O + N=C(N)NC(=N)NCCc1ccccc1 [Phenformin] (partner 250 µM)
In short: (§1)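 Nuclei were stained with Hoechst during a one-step fixation (final 0.05% Triton X-100, 1% formaldehyde, 1 ug/ml Hoechst) carried out 5 days after dosing, then counted on 4× images. The cells, lung cancer lines in 1536-well plates, had been dosed by pin tool the day after seeding with one drug alone or a fixed anchor-drug dose plus five library-drug doses (not always all listed) in √10 steps. Relative viability is the nuclei count in treated wells divided by that in vehicle wells, and each value is the median of duplicate plates.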

[2] = compound: CN(c1ncccc1CNc1nc(Nc2ccc3c(c2)CC(=O)N3)ncc1C(F)(F)F)S(C)(=O)=O + CS(=O)(=O)N1CCN(Cc2cc3nc(-c4cccc5[nH]ncc45)nc(N4CCOCC4)c3s2)CC1 [Pictilisib] (partner 1 µM)
In short: as §1

[3] = compound: CN(c1ncccc1CNc1nc(Nc2ccc3c(c2)CC(=O)N3)ncc1C(F)(F)F)S(C)(=O)=O + NC(=O)Nc1cc(-c2cccc(F)c2)sc1C(=O)N[C@H]1CCCNC1 [AZD7762] (partner 0.2 µM)
In short: as §1

[4] = compound: CN(c1ncccc1CNc1nc(Nc2ccc3c(c2)CC(=O)N3)ncc1C(F)(F)F)S(C)(=O)=O + Cc1nc(NC(=O)N2CCC[C@H]2C(N)=O)sc1-c1ccnc(C(C)(C)C(F)(F)F)c1 [Alpelisib] (partner 2 µM)
In short: as §1

Row | Cell Line | relative viability ([1]; first compound 0.01 µM) | relative viability ([1]; first compound 0.03162 µM) | relative viability ([1]; first compound 0.1 µM) | relative viability ([1]; first compound 0.3162 µM) | relative viability ([1]; first compound 1 µM) | relative viability ([2]; first compound 0.01 µM) | relative viability ([2]; first compound 0.03162 µM) | relative viability ([2]; first compound 0.1 µM) | relative viability ([2]; first compound 0.3162 µM) | relative viability ([2]; first compound 1 µM) | relative viability ([3]; first compound 0.01 µM) | relative viability ([3]; first compound 0.03162 µM) | relative viability ([3]; first compound 0.1 µM) | relative viability ([3]; first compound 0.3162 µM) | relative viability ([3]; first compound 1 µM) | relative viability ([4]; first compound 0.01 µM) | relative viability ([4]; first compound 0.03162 µM) | relative viability ([4]; first compound 0.1 µM) | relative viability ([4]; first compound 0.3162 µM) | relative viability ([4]; first compound 1 µM)
1 | NCI-H2405 | 0.402 | 0.376 | 0.385 | 0.248 | 0.392 | 0.552 | 0.393 | 0.42 | 0.383 | 0.376 | 0.702 | 0.69 | 0.749 | 0.573 | 0.626 | 0.837 | 0.757 | 0.719 | 0.72 | 0.727
2 | NCI-H3122 | 0.389 | 0.373 | 0.36 | 0.317 | 0.354 | 0.599 | 0.673 | 0.627 | 0.572 | 0.584 | 1.04 | 1.09 | 0.981 | 0.978 | 1.03 | 0.748 | 0.982 | 0.684 | 0.822 | 0.728
3 | PC-3 [JPC-3] | 0.522 | 0.488 | 0.505 | 0.471 | 0.481 | 0.747 | 0.723 | 0.75 | 0.782 | 0.71 | 0.851 | – | 0.848 | 0.948 | 1.03 | 0.993 | 1.14 | 0.941 | 1.02 | 0.952
4 | PC-14 | 0.726 | 0.59 | 0.563 | 0.565 | 0.715 | 0.829 | 0.872 | 0.716 | 0.66 | 0.533 | 0.393 | 0.443 | 0.426 | 0.385 | 0.311 | 1.02 | 1.07 | 0.982 | 0.951 | 0.869
5 | RERF-LC-KJ | 0.409 | 0.458 | 0.419 | 0.463 | 0.412 | 0.494 | 0.577 | 0.551 | 0.548 | 0.622 | 0.89 | 1.08 | 1.03 | 1.04 | 1.07 | 0.838 | 0.955 | 0.813 | 0.765 | 0.825
